Assay results reported in US10428066B2, “Imidazo[4,5-C]pyridine and pyrrolo[2,3-C]pyridine derivatives as SSAO inhibitors” (PROXIMAGEN, LLC, priority 2013, dated 2019).
pIC50: −log10 of the molar value.

Experiments:
[1] = target: human ether a go-go related gene (hERG) K+ channel (Homo sapiens (Human), UniProt Q12809); test: hERG assay, IonWorks patch clamp electrophysiology; type: cell-based; conditions: Chinese Hamster Lung cell line stably expressing hERG, maximum assay concentration 11 uM
Experimental: Compounds of the invention were tested for inhibition of the human ether a go-go related gene (hERG) K^+ channel using IonWorks patch clamp electrophysiology. 8 Point concentration-response curves were generated on two occasions using 3-fold serial dilutions from the maximum assay concentration (11 uM). Electrophysiological recordings were made from a Chinese Hamster Lung cell line stably expressing the full length hERG channel. Single cell ion currents were measured in the perforated patch clamp configuration (100 ug/mL amphoterocin) at room temperature using an IonWorks Quattro instrument. The internal solution contained 140 mM KCl, 1 mM MgCl2, 1 mM EGTA and 20 mM HEPES and was buffered to pH 7.3. The external solution contained 138 mM NaCl, 2.7 mM KCl, 0.9 mM CaCl2, 0.5 mM MgCl2, 8 mM Na2HPO4 and 1.5 mM KH2PO4, and was buffered to pH 7.3. […] This sequence was repeated 5 times at a frequency of 0.25 Hz. Currents were measured from the tail step at the 5th pulse, and referenced to the holding current. Compounds were incubated for 6-7 min prior to a second measurement of the hERG signal using an identical pulse train. A minimum of 17 cells were required for each plC50 curve fit. A control compound (quinidine) was used (see Table 20 below).

[2] = target: purified recombinantly expressed human SSAO (Homo sapiens (Human), UniProt Q16853); test: SSAO enzyme inhibition assay (HRP-coupled hydrogen peroxide detection or 14C-benzaldehyde detection, benzylamine substrate); type: biochemical; conditions: human recombinant SSAO, RT
Experimental: All primary assays were performed at RT. with purified recombinantly expressed human SSAO. Enzyme was prepared essentially as described in Öhman et al. (Protein Expression and Purification 46 (2006) 321-331). In addition, secondary- and selectivity assays were performed using SSAO prepared from various tissues or purified rat recombinant SSAO. The enzyme activity was assayed with benzylamine as substrate by measuring either benzaldehyde production, using ^14C-labeled substrate, or by utilizing the production of hydrogen peroxide in a horseradish peroxidase (HRP) coupled reaction. Briefly, test compounds were dissolved in dimethyl sulfoxide (DMSO) to a concentration of 10 mM. Dose-response measurements were assayed by either creating 1:10 serial dilutions in DMSO to produce a 7 point curve or by making 1:3 serial dilutions in DMSO to produce 11 point curves.
In a horseradish peroxidase (HRP) coupled reaction, hydrogen peroxide oxidation of 10-acetyl-3,7-dihydroxyphenoxazine produced resorufin, which is a highly fluorescent compound (Zhout and Panchuk-Voloshina. Analytical Biochemistry 253 (1997) 169-174; Amplex® Red Hydrogen Peroxide/peroxidase Assay kit, Invitrogen A22188). Enzyme and compounds in 50 mM sodium phosphate, pH 7.4 were set to pre-incubate in flat-bottomed microtiter plates for approximately 15 min before initiating the reaction by addition of a mixture of HRP, benzylamine and Amplex reagent. Benzylamine concentration was fixed at a concentration corresponding to the Michaelis constant, determined using standard procedures. Fluorescence intensity was then measured at several time points during 1-2 h, exciting at 544 nm and reading the emission at 590 nm. For the human SSAO assay final concentrations of the reagents in the assay wells were: SSAO enzyme 1 ug/ml, benzylamine 100 uM, Amplex reagent 20 uM, HRP 0.1 U/mL and varying concentrations of test compound. The inhibition was measured as % decrease of the signal compared to a control without inhibitor (only diluted DMSO). The background signal from a sample containing no SSAO enzyme was subtracted from all data points. Data was fitted to a four parameter logistic model and IC50 values were calculated using the GraphPad Prism 4 or XLfit 4 programs.
SSAO activity was assayed using 14C-labeled benzylamine and analysed by measuring radioactive benzaldehyde. In a white 96-well optiplate (Packard), 20 uL of diluted test compound was pre-incubated at room temperature with 20 uL SSAO enzyme for approximately 15 min with continuous agitation. All dilutions were made with PBS. The reaction was initiated by adding 20 uL of the benzylamine substrate solution containing [7-14C] Benzylamine hydrochloride (CFA589, GE Healthcare). The plate was incubated for 1 h as above after which the reaction was stopped by acidification (10 uL 1M aq HCl). Then 90 uL Micro Scint-E solution (Perkin-Elmer) was added to each well and the plate was continuously mixed for 15 min. Phase separation occurred instantly and activity was read in a Topcount scintillation counter (Perkin-Elmer). In the final reaction well, the human recombinant SSAO concentration was 10 ug/ml. In order to optimize sensitivity, the substrate concentration was decreased as compared to the HRP coupled assay in order to get a higher fraction of radioactive product. In the human SSAO assay, benzylamine concentration was 40 uM (0.2 uCi/mL). Data was analysed as above.

Chain of purified recombinantly expressed human SSAO (Q16853 29-763): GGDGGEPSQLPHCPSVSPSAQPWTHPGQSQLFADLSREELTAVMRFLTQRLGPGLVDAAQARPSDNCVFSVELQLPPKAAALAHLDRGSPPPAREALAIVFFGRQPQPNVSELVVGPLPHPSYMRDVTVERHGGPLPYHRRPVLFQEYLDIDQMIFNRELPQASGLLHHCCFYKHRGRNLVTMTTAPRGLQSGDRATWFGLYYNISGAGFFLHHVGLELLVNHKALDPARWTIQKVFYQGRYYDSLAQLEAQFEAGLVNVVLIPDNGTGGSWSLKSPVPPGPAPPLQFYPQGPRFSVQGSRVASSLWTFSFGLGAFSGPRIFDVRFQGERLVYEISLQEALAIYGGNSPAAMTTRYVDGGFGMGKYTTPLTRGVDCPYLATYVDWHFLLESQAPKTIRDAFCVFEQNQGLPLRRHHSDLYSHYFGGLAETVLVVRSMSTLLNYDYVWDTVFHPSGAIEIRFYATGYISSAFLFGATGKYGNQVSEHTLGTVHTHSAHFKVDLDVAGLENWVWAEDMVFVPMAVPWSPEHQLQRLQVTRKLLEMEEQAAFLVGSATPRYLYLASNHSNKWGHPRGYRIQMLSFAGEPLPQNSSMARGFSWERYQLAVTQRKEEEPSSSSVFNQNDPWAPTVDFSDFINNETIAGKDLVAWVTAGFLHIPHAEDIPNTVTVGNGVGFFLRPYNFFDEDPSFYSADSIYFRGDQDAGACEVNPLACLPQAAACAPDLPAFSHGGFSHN
Chain of human ether a go-go related gene (hERG) K+ channel (Q12809 whole entry): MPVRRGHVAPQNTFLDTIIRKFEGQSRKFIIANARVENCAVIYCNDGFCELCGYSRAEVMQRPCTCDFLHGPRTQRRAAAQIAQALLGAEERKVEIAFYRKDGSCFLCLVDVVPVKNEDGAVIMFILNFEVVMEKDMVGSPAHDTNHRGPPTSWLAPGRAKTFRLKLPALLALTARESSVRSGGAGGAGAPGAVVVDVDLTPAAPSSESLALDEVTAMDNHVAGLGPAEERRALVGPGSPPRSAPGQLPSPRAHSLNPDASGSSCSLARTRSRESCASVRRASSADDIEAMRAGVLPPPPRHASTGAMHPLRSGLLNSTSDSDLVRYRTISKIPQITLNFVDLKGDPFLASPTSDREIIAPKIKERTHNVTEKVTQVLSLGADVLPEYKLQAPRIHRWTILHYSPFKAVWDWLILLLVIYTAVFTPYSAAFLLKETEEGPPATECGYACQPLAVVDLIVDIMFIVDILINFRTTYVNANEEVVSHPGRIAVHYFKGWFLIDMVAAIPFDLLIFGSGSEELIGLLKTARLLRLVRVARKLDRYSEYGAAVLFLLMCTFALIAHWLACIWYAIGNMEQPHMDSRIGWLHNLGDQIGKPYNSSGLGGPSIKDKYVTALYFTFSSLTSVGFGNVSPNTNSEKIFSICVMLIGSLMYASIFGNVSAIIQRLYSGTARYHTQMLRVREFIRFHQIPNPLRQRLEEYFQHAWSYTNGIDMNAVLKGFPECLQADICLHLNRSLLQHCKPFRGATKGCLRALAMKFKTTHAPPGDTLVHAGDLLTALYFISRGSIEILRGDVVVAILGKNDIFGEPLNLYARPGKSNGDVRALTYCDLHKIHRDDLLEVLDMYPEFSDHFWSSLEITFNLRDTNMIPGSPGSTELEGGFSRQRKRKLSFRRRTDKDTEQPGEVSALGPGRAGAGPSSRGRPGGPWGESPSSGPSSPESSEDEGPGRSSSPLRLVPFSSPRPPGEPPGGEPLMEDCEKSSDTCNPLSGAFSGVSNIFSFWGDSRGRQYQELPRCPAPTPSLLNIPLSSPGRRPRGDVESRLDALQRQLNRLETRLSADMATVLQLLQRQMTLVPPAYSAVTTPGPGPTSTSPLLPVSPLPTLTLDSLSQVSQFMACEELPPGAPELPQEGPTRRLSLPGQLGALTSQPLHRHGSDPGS

Structure (SMILES) | pIC50 [2] | pIC50 [1]
Clc1ccc(-n2c(-c3ccc(N4CCOCC4)nn3)nc3ccncc32)cc1 [Example 4, 4-{6-[3-(4-Chlorophenyl)-3H-imidazo[4,5-c]pyridin-2-yl]pyridazin-3-yl}morpholine] | – | 5.00 to 6.00
Clc1ccc(-n2c(-c3ccc(N4CCOCC4)nc3)nc3ccncc32)cc1 [Example 47, 4-{5-[3-(4-Chlorophenyl)-3H-imidazo[4,5-c]pyridin-2-yl]pyridin-2-yl}morpholine] | – | 5.00 to 6.00
Clc1ccc(-n2c(-c3cnc(N4CCOCC4)nc3)nc3ccncc32)cc1 [Example 51, 4-{5-[3-(4-Chlorophenyl)-3H-imidazo[4,5-c]pyridin-2-yl]pyrimidin-2-yl}morpholine] | – | 5.00 to 6.00
Cc1ccc(-n2c(-c3ccc(N4CCOCC4)nc3)nc3ccncc32)c(F)c1 [Example 67, 4-{5-[3-(2-Fluoro-4-methylphenyl)-3H-imidazo[4,5-c]pyridin-2-yl]pyridin-2-yl}morpholine] | – | 5.00 to 6.00
CS(=O)(=O)NC1CCN(c2ccc(-c3nc4ccncc4n3-c3ccc(Cl)cc3)cn2)CC1 [Example 88, N-(1-{5-[3-(4-Chlorophenyl)-3H-imidazo[4,5-c]pyridin-2-yl]pyridin-2-yl}piperidin-4-yl)methanesulfonamide] | – | 5.00 to 6.00
O=c1cc(-c2nc3ccncc3n2-c2ccc(Cl)cc2F)ccn1C1CC1 [Example 116, 4-[3-(4-Chloro-2-fluorophenyl)-3H-imidazo[4,5-c]pyridin-2-yl]-1-cyclopropyl-1,2-dihydropyridin-2-one] | 6.70 to 7.30 | –
COCCN(C)c1ncc(-c2nc3ccncc3n2-c2ccc(C)cc2)cn1 [Example 117, N-(2-Methoxyethyl)-N-methyl-5-[3-(4-methylphenyl)-3H-imidazo[4,5-c]pyridin-2-yl]pyrimidin-2-amine] | 5.92 to 6.70 | –
Clc1ccc(-n2c(-c3ccncc3)cc3ccncc32)cc1 [Example 120, 4-[1-(4-Chlorophenyl)-1H-pyrrolo[2,3-c]pyridin-2-yl]pyridine] | 5.92 to 6.70 | 5.00 to 6.00
Clc1ccc(-n2c(-c3cccnc3)cc3ccncc32)cc1 [Example 122, 3-[1-(4-Chlorophenyl)-1H-pyrrolo[2,3-c]pyridin-2-yl]pyridine] | 6.70 to 7.30 | 5.00 to 6.00
Clc1ccc(-n2c(-c3cnc(N4CCOCC4)nc3)cc3ccncc32)cc1 [Example 127, 4-{5-[1-(4-Chlorophenyl)-1H-pyrrolo[2,3-c]pyridin-2-yl]pyrimidin-2-yl}morpholine] | – | 6.00 to 7.00
c1ccc(-n2c(-c3cnc(N4CCOCC4)nc3)cc3ccncc32)cc1 [Example 131, 4-(5-{1-Phenyl-1H-pyrrolo[2,3-c]pyridin-2-yl}pyrimidin-2-yl)morpholine] | 5.92 to 6.70 | 5.00 to 6.00
O=c1cc(-c2cc3ccncc3n2-c2ccc(Cl)cc2)ccn1C1CC1 [Example 138, 4-[1-(4-Chlorophenyl)-1H-pyrrolo[2,3-c]pyridin-2-yl]-1-cyclopropyl-1,2-dihydropyridin-2-one] | – | 5.00 to 6.00
Clc1ccc(-n2c(-c3cnc(NC4CCOCC4)nc3)cc3ccncc32)cc1 [Example 139, 5-[1-(4-Chlorophenyl)-1H-pyrrolo[2,3-c]pyridin-2-yl]-N-(oxan-4-yl)pyrimidin-2-amine] | – | 6.00 to 7.00
Clc1ccc(-n2c(-c3ccc(CN4CCOCC4)nc3)cc3ccncc32)cc1 [Example 140, 4-({5-[1-(4-Chlorophenyl)-1H-pyrrolo[2,3-c]pyridin-2-yl]pyridin-2-yl}methyl)morpholine] | – | 5.00 to 6.00
O=c1cc(-c2cc3ccncc3n2-c2ccc(Cl)cc2)cc[nH]1 [Example 142, 4-[1-(4-Chlorophenyl)-1H-pyrrolo[2,3-c]pyridin-2-yl]-1,2-dihydropyridin-2-one] | 6.70 to 7.30 | 5.00 to 6.00
Nc1cc(-c2cc3ccncc3n2-c2ccc(Cl)cc2)ccn1 [Example 147, 4-[1-(4-Chlorophenyl)-1H-pyrrolo[2,3-c]pyridin-2-yl]pyridin-2-amine] | – | 5.00 to 6.00
Clc1ccc(-n2c(-c3ccc(-n4cccn4)nc3)cc3ccncc32)cc1 [Example 151, 5-[1-(4-Chlorophenyl)-1H-pyrrolo[2,3-c]pyridin-2-yl]-2-(1H-pyrazol-1-yl)pyridine; bis(trifluoroacetic acid)] | 6.70 to 7.30 | –
Clc1ccc(-n2c(-c3ccncc3Cl)cc3ccncc32)cc1 [Example 153, 3-Chloro-4-[1-(4-chlorophenyl)-1H-pyrrolo[2,3-c]pyridin-2-yl]pyridine] | 6.70 to 7.30 | 5.00 to 6.00

Second part, led by results:

pIC50 [2] | Structure (SMILES) | pIC50 [1]
5.92 to 6.70 | Cn1ccc(-c2nc3ccncc3n2-c2ccc(F)cc2)cc1=O [Example 114, 4-[3-(4-Fluorophenyl)-3H-imidazo[4,5-c]pyridin-2-yl]-1-methyl-1,2-dihydropyridin-2-one] | –
6.70 to 7.30 | Cc1ccc(-n2c(-c3cnc(NC4CCOCC4)nc3)nc3ccncc32)cc1 [Example 119, 5-[3-(4-Methylphenyl)-3H-imidazo[4,5-c]pyridin-2-yl]-N-(oxan-4-yl)pyrimidin-2-amine; bis(trifluoroacetic acid)] | –
5.92 to 6.70 | CN1CCN(C(=O)c2ccc(-c3cc4ccncc4n3-c3ccc(Cl)cc3)cc2)CC1 [Example 125, 1-({4-[1-(4-Chlorophenyl)-1H-pyrrolo[2,3-c]pyridin-2-yl]phenyl}carbonyl)-4-methylpiperazine] | –
6.70 to 7.30 | Cc1ccc(-n2c(-c3cnc(N4CCOCC4)nc3)cc3ccncc32)cc1 [Example 130, 4-{5-[1-(4-Methylphenyl)-1H-pyrrolo[2,3-c]pyridin-2-yl]pyrimidin-2-yl}morpholine] | –
6.70 to 7.30 | CCn1ccc(-c2cc3ccncc3n2-c2ccc(Cl)cc2)cc1=O [Example 144, 4-[1-(4-Chlorophenyl)-1H-pyrrolo[2,3-c]pyridin-2-yl]-1-ethyl-1,2-dihydropyridin-2-one] | –
6.70 to 7.30 | O=c1cc(-c2cc3ccncc3n2-c2ccc(Cl)cc2)cn[nH]1 [Example 146, 5-[1-(4-Chlorophenyl)-1H-pyrrolo[2,3-c]pyridin-2-yl]-2,3-dihydropyridazin-3-one] | –
6.70 to 7.30 | Clc1ccc(-n2c(-c3cncc(Cl)c3)cc3ccncc32)cc1 [Example 150, 3-Chloro-5-[1-(4-chlorophenyl)-1H-pyrrolo[2,3-c]pyridin-2-yl]pyridine] | –
5.92 to 6.70 | Fc1cnccc1-c1cc2ccncc2n1-c1ccc(Cl)cc1 [Example 152, 4-[1-(4-Chlorophenyl)-1H-pyrrolo[2,3-c]pyridin-2-yl]-3-fluoropyridine] | 5.00 to 6.00
